Measured values as given in publication PMC10294875, “Ether Derivatives of Naringenin and Their Oximes as Factors Modulating Bacterial Adhesion” (Antibiotics, 2023).
Converted amounts (≈) assume the structure as drawn.

Tested on: HT-29 cell line
Test: SRB assay, antiproliferative activity against HT-29
Format: cell-based, human
Conditions: Homo sapiens; 2 h incubation, SRB assay, HT-29
Protocol: (§1) The human adenocarcinoma cell line, HT-29 (ATCC HTB-38), was cultured in αMEM medium (IITD PAN) supplemented with 10% fetal bovine serum, FBS (Sigma-Aldrich, Taufkirchen, Germany), 100 U/mL penicillin, 100 µg/mL streptomycin antibiotic solution (Sigma-Aldrich, Taufkirchen, Germany), and 2 mM glutamine solution (Sigma-Aldrich, Taufkirchen, Germany). Cells from less than 20 passages were used for the study. In turn, preadipocytes from mouse embryos with the morphology of fibroblast cells, line 3T3-L1 (ATCC CL-173), were cultured in DMEM high-glucose medium (Life Technologies Corporation, Carlsbad, CA, USA) with the same supplements as above. Cells from less than 14 passages were used for the study. Both tested cell lines were grown at 37 °C in 5% CO2.
(§2) The effect of O-alkyl derivatives of naringenin and their oximes on eukaryotic cells was checked using a slightly modified SRB test described earlier. Firstly, HT-29 (1 × 10^5 cells/mL) and 3T3-L1 (5 × 10^4 cells/mL) cell lines were incubated in adherent microtiter plates under the conditions described above. The cells were then treated for 2 h with the tested compounds 1a–10a and 1b–10b at concentrations of 1, 5, 10, 25, 50, 75, and 100 µg/mL each. After this time, the medium was removed and replaced with one containing 50% (wt/vol) trichloroacetic acid (TCA; Sigma-Aldrich, Taufkirchen, Germany). Following 1 h of incubation at 4 °C, the plate was rinsed with water, and then an acidic solution of 0.4% sulforhodamine B (SRB) (Sigma-Aldrich, Taufkirchen, Germany), was added to the dried wells and incubated in the dark for half an hour. At the end of this time, the SRB solution was replaced by 1% (vol/vol) acetic acid, and the stained protein precipitate was dissolved in 10 mM Tris base solution (pH 10.5). Absorbance was measured at 560 nm in a plate reader (GloMax Discover Microplate Reader, Promega).
(§3) The cytotoxic effect of O-alkyl derivatives of naringenin and their oximes on eukaryotic cells was expressed as the concentration of the tested compounds at which 50% growth inhibition of the tested cell lines was observed. Values were presented in the form of the survival index (SI)–IC50. All determinations were repeated in three independent experiments, each performed in three technical replicates. Moreover, the effect of DMSO (Sigma-Aldrich, Taufkirchen, Germany), the solvent present in all the initial solutions of the tested compounds, on the growth of the cell lines used in the study was also verified.

Row | SMILES | IC50
1 | CCCCCCCCOc1cc(O)c2c(c1)O[C@H](c1ccc(O)cc1)CC2=NO [Compound 5b, 7-O-octylnaringenin oxime] | 49.8 µg/mL (≈ 125 µM)
2 | CCCCCCCCCCCOc1cc(O)c2c(c1)O[C@H](c1ccc(O)cc1)CC2=O [Compound 9a, 7-O-undecylnaringenin] | > 100 µg/mL
3 | CCCCCCCCCCCOc1ccc([C@@H]2CC(=NO)c3c(O)cc(OCCCCCCCCCCC)cc3O2)cc1 [Compound 10b, 7,4’-di-O-undecylnaringenin oxime] | 48.2 µg/mL (≈ 80.9 µM)
4 | CCCCCCCCOc1ccc([C@@H]2CC(=O)c3c(O)cc(OCCCCCCCC)cc3O2)cc1 [Compound 6a, 7,4’-di-O-octylnaringenin] | > 100 µg/mL
5 | CCCCCCOc1ccc([C@@H]2CC(=O)c3c(O)cc(OCCCCCC)cc3O2)cc1 [Compound 2a, 7,4’-di-O-hexylnaringenin] | > 100 µg/mL
6 | CCCCCCCOc1cc(O)c2c(c1)O[C@H](c1ccc(O)cc1)CC2=NO [Compound 3b, 7-O-heptylnaringenin oxime] | 29.1 µg/mL (≈ 75.6 µM)
7 | CCCCCCCOc1ccc([C@@H]2CC(=NO)c3c(O)cc(OCCCCCCC)cc3O2)cc1 [Compound 4b, 7,4’-di-O-heptylnaringenin oxime] | 43.4 µg/mL (≈ 89.6 µM)
8 | CCCCCCCCCCCOc1cc(O)c2c(c1)O[C@H](c1ccc(O)cc1)CC2=NO [Compound 9b, 7-O-undecylnaringenin oxime] | > 100 µg/mL
9 | CCCCCCCCOc1cc(O)c2c(c1)O[C@H](c1ccc(O)cc1)CC2=O [Compound 5a, 7-O-octylnaringenin] | 38.4 µg/mL (≈ 99.7 µM)
10 | CCCCCCOc1cc(O)c2c(c1)O[C@H](c1ccc(O)cc1)CC2=NO [Compound 1b, 7-O-hexylnaringenin oxime] | 38.4 µg/mL (≈ 103 µM)

Same assay, conditions: SRB, tested concentration range 1–100 µg/mL

Row | SMILES | cytotoxic / antiproliferative effect against HT-29 (in words)
11 | CCCCCCCCOc1cc(O)c2c(c1)O[C@H](c1ccc(O)cc1)CC2=NO [Compound 5b, 7-O-octylnaringenin oxime] | cytotoxic effects
12 | CCCCCCCCOc1ccc([C@@H]2CC(=O)c3c(O)cc(OCCCCCCCC)cc3O2)cc1 [Compound 6a, 7,4’-di-O-octylnaringenin] | no effect
13 | CCCCCCOc1ccc([C@@H]2CC(=O)c3c(O)cc(OCCCCCC)cc3O2)cc1 [Compound 2a, 7,4’-di-O-hexylnaringenin] | no effect
14 | CCCCCCCOc1cc(O)c2c(c1)O[C@H](c1ccc(O)cc1)CC2=NO [Compound 3b, 7-O-heptylnaringenin oxime] | cytotoxic effects
15 | CCCCCCCCOc1cc(O)c2c(c1)O[C@H](c1ccc(O)cc1)CC2=O [Compound 5a, 7-O-octylnaringenin] | antiproliferative activity
16 | CCCCCCOc1cc(O)c2c(c1)O[C@H](c1ccc(O)cc1)CC2=NO [Compound 1b, 7-O-hexylnaringenin oxime] | cytotoxic effects

Tested on: 3T3-L1 cell line
Test: SRB assay, antiproliferative activity against 3T3-L1
Format: cell-based, mouse
Conditions: Mus musculus; 2 h incubation, SRB assay, 3T3-L1
Protocol: as §1, §2, §3

Row | SMILES | IC50
17 | CCCCCCCCOc1cc(O)c2c(c1)O[C@H](c1ccc(O)cc1)CC2=NO [Compound 5b, 7-O-octylnaringenin oxime] | 49.9 µg/mL (≈ 125 µM)
18 | CCCCCCCCCCCOc1cc(O)c2c(c1)O[C@H](c1ccc(O)cc1)CC2=O [Compound 9a, 7-O-undecylnaringenin] | 80.6 µg/mL (≈ 189 µM)
19 | CCCCCCCCCCCOc1ccc([C@@H]2CC(=NO)c3c(O)cc(OCCCCCCCCCCC)cc3O2)cc1 [Compound 10b, 7,4’-di-O-undecylnaringenin oxime] | > 100 µg/mL
20 | CCCCCCCCOc1ccc([C@@H]2CC(=O)c3c(O)cc(OCCCCCCCC)cc3O2)cc1 [Compound 6a, 7,4’-di-O-octylnaringenin] | > 100 µg/mL
21 | CCCCCCOc1ccc([C@@H]2CC(=O)c3c(O)cc(OCCCCCC)cc3O2)cc1 [Compound 2a, 7,4’-di-O-hexylnaringenin] | > 100 µg/mL
22 | CCCCCCCOc1cc(O)c2c(c1)O[C@H](c1ccc(O)cc1)CC2=NO [Compound 3b, 7-O-heptylnaringenin oxime] | 32.1 µg/mL (≈ 83.3 µM)
23 | CCCCCCCOc1ccc([C@@H]2CC(=NO)c3c(O)cc(OCCCCCCC)cc3O2)cc1 [Compound 4b, 7,4’-di-O-heptylnaringenin oxime] | > 100 µg/mL
24 | CCCCCCCCCCCOc1cc(O)c2c(c1)O[C@H](c1ccc(O)cc1)CC2=NO [Compound 9b, 7-O-undecylnaringenin oxime] | > 100 µg/mL
25 | CCCCCCCCOc1cc(O)c2c(c1)O[C@H](c1ccc(O)cc1)CC2=O [Compound 5a, 7-O-octylnaringenin] | 20.1 µg/mL (≈ 52.3 µM)
26 | CCCCCCOc1cc(O)c2c(c1)O[C@H](c1ccc(O)cc1)CC2=NO [Compound 1b, 7-O-hexylnaringenin oxime] | 35 µg/mL (≈ 94.2 µM)

Same assay, conditions: SRB, tested concentration range 1–100 µg/mL

Row | SMILES | cytotoxic / antiproliferative effect against 3T3-L1 (in words)
27 | CCCCCCCCCCCOc1cc(O)c2c(c1)O[C@H](c1ccc(O)cc1)CC2=O [Compound 9a, 7-O-undecylnaringenin] | cytotoxic activity
28 | CCCCCCCCOc1ccc([C@@H]2CC(=O)c3c(O)cc(OCCCCCCCC)cc3O2)cc1 [Compound 6a, 7,4’-di-O-octylnaringenin] | no effect
29 | CCCCCCOc1ccc([C@@H]2CC(=O)c3c(O)cc(OCCCCCC)cc3O2)cc1 [Compound 2a, 7,4’-di-O-hexylnaringenin] | no effect
30 | CCCCCCCCOc1cc(O)c2c(c1)O[C@H](c1ccc(O)cc1)CC2=O [Compound 5a, 7-O-octylnaringenin] | cytotoxic activity

Tested on: Escherichia coli K12 (ATCC 10798)
Test: Adhesion assay, static conditions: E. coli to 3T3-L1 cell line
Format: cell-based
Conditions: 1 µg/mL
Protocol: (§4) The study used two reference strains, Escherichia coli K12 (ATCC 10798) and Enterococcus faecalis (ATCC 29212), obtained from the American Type Culture Collection. Both strains were stored in trypticase soy broth (TSB; OXOID, Basingstoke, UK) with the addition of 30% glycerol at −70 °C in the museum resources of the Department of Microbiology at the Wroclaw Medical University.
(§5) For studies determining the interaction of bacteria with eukaryotic cells, suspensions of the tested strains were prepared in Luria broth (LB, Becton, Dickinson and Company, USA) medium with a bacterial density of 6 × 10^8 CFU/mL.
(§6) The adhesion ability of the tested bacterial strains to HT-29 and 3T3-L1 cell lines was determined by an in vitro adhesion assay as described previously. Eukaryotic cells were infected with prokaryotic cells in the presence of the examined compounds in pre-selected concentrations at an MOI (multiplicity of infection) ratio of 50. Cells were exposed to the tested strains and compounds for 2 h. After this time, unbound bacteria were removed by washing with PBS (Life Technologies Corporation, Carlsbad, CA, USA). The lysates acquired by cell lysis (0.5% Triton X-100 in LB): 90 min, 37 °C, 5% CO2 atmosphere, were then seeded onto TSA and MC media for E. faecalis and E. coli, respectively. The assays were performed in at least three independent experiments (cells from subsequent passages), each in triplicate. A control without tested compounds was set for each strain.

Row | SMILES | attachment of E. coli to 3T3-L1 decreased to
31 | CCCCCCOc1cc(O)c2c(c1)O[C@H](c1ccc(O)cc1)CC2=NO [Compound 1b, 7-O-hexylnaringenin oxime] | 63%

Same assay, conditions: 25 µg/mL

Row | SMILES | adherence of E. coli to 3T3-L1
32 | CCCCCCOc1cc(O)c2c(c1)O[C@H](c1ccc(O)cc1)CC2=NO [Compound 1b, 7-O-hexylnaringenin oxime] | practically not observed

Tested on: Escherichia coli K12 (ATCC 10798)
Test: Adhesion assay, static conditions: E. coli to HT-29 cell line
Format: cell-based
Conditions: 25 µg/mL
Protocol: as §4, §5, §6

Row | SMILES | adhesion of E. coli to HT-29 higher than in the control
33 | CCCCCCCOc1ccc([C@@H]2CC(=NO)c3c(O)cc(OCCCCCCC)cc3O2)cc1 [Compound 4b, 7,4’-di-O-heptylnaringenin oxime] | 17 fold

Same assay, conditions: 50 µg/mL

Row | SMILES | adhesion of E. coli to HT-29 higher than in the control
34 | CCCCCCCOc1ccc([C@@H]2CC(=NO)c3c(O)cc(OCCCCCCC)cc3O2)cc1 [Compound 4b, 7,4’-di-O-heptylnaringenin oxime] | 5 fold

Same assay, conditions: 1–10 µg/mL or 75–100 µg/mL

Row | SMILES | level of adherence of E. coli to HT-29
35 | CCCCCCCOc1ccc([C@@H]2CC(=NO)c3c(O)cc(OCCCCCCC)cc3O2)cc1 [Compound 4b, 7,4’-di-O-heptylnaringenin oxime] | very low

Tested on: Enterococcus faecalis (ATCC 29212)
Test: Adhesion assay, static conditions: E. faecalis to 3T3-L1 cell line
Format: cell-based
Conditions: not given
Protocol: as §4, §5, §6

Row | SMILES | effect on adhesion of E. faecalis to 3T3-L1 (in words)
36 | CCCCCCCCCCCOc1cc(O)c2c(c1)O[C@H](c1ccc(O)cc1)CC2=O [Compound 9a, 7-O-undecylnaringenin] | often actually limited the attachment
37 | CCCCCCCCCCCOc1cc(O)c2c(c1)O[C@H](c1ccc(O)cc1)CC2=NO [Compound 9b, 7-O-undecylnaringenin oxime] | often actually limited the attachment
